# Source: ChEMBL document CHEMBL1177675, “Synthesis and antiproliferative evaluation of certain iminonaphtho[2,3-b]furan derivatives” (Bioorg Med Chem, 2010)
# Activity calls are given as the source filed them. No cut-off for these calls is given here.
# Assays:
# MCF7 [1] = experiment: Cytotoxicity against human MCF7 cells at 4 ug/ml after 48 hrs by sulforhodamine B assay relative to control; assay type: functional
# NCI-H460 [2] = experiment: Cytotoxicity against human NCI-H460 cells at 4 ug/ml after 48 hrs by sulforhodamine B assay relative to control; assay type: functional
# SF-268 [3] = experiment: Cytotoxicity against human SF268 cells at 4 ug/ml after 48 hrs by sulforhodamine B assay relative to control; assay type: functional
# MCF7 [4] = experiment: Cytotoxicity against human MCF7 cells after 72 hrs by XTT assay; assay type: functional; conditions: MCF7, 72 h
# NCI-H460 [5] = experiment: Cytotoxicity against human NCI-H460 cells after 72 hrs by XTT assay; assay type: functional; conditions: NCI-H460, 72 h
# SF-268 [6] = experiment: Cytotoxicity against human SF268 cells after 72 hrs by XTT assay; assay type: functional; conditions: SF-268, 72 h
# [7] = Cytotoxicity against human Detroit 551 cells after 72 hrs by XTT assay; assay type: cell-based
# MCF7 [8] = experiment: Selectivity index, ratio of GI50 for human Detroit 551 cells to GI50 for human MCF7 cells; assay type: functional
# NCI-H460 [9] = experiment: Selectivity index, ratio of GI50 for human Detroit 551 cells to GI50 for human NCI-H460 cells; assay type: functional
# SF-268 [10] = experiment: Selectivity index, ratio of GI50 for human Detroit 551 cells to GI50 for human SF268 cells; assay type: functional
# K562 [11] = experiment: Cytotoxicity against human K562 cells after 72 hrs by XTT assay; assay type: functional; conditions: K562, 72 h
# K562 [12] = experiment: Selectivity index, ratio of GI50 for human Detroit 551 cells to GI50 for human K562 cells; assay type: functional
# K562 [13] = experiment: Cell cycle arrest in human K562 cells assessed as accumulation at G0/G1 phase at 1 uM after 24 hrs using propidium iodide staining by flow cytometry; assay type: functional
# K562 [14] = experiment: Cell cycle arrest in human K562 cells assessed as accumulation at S phase at 1 uM after 24 hrs using propidium iodide staining by flow cytometry; assay type: functional
# K562 [15] = experiment: Cell cycle arrest in human K562 cells assessed as accumulation at G2/M phase at 1 uM after 24 hrs using propidium iodide staining by flow cytometry; assay type: functional
# K562 [16] = experiment: Cell cycle arrest in human K562 cells assessed as accumulation at Sub-G1 phase at 1 uM after 24 hrs using propidium iodide staining by flow cytometry; assay type: functional
# K562 [17] = experiment: Induction of apoptosis in human K562 cells assessed as morphological changes at 1 to 10 uM after 48 hrs using DAPI staining by fluorescent microscopic analysis; assay type: functional, cell-based
# K562 [18] = experiment: Induction of apoptosis in human K562 cells assessed as formation of fragmented DNA at 1 to 10 uM after 48 hrs using ethidium bromide staining by agarose gel electrophoresis; assay type: functional, cell-based
# K562 [19] = experiment: Induction of apoptosis in human K562 cells assessed as activation of caspase-3 activity after 48 hrs by immunoblot analysis; assay type: functional, cell-based
# K562 [20] = experiment: Induction of apoptosis in human K562 cells assessed as PARP cleavage after 48 hrs by immunoblot analysis; assay type: functional, cell-based
SMILES,Activity (MCF7 [1]) [%],Activity (NCI-H460 [2]) [%],Activity (SF-268 [3]) [%],GI50 (MCF7 [4]) [µM],GI50 (NCI-H460 [5]) [µM],GI50 (SF-268 [6]) [µM],GI50 at 72 h [7] [µM],RatioGI50 (MCF7 [8]),RatioGI50 (NCI-H460 [9]),RatioGI50 (SF-268 [10]),GI50 (K562 [11]) [nM],RatioGI50 (K562 [12]),Activity (K562 [13]) [%],Activity (K562 [14]) [%],Activity (K562 [15]) [%],Activity (K562 [16]) [%],Activity (K562 [17]),Activity (K562 [18]),Activity (K562 [19]),Activity (K562 [20])
O=C1c2ccccc2/C(=N/OCc2ccccc2)c2ccoc21,93,85,103,,,,,,,,,,,,,,,,,
CCN(CC)CCOC(=O)c1ccc(/N=C2/c3ccccc3/C(=N/c3ccc(C(=O)OCCN(CC)CC)cc3)c3occc32)cc1,-1,-1,18,2.6,2.23,4.1,1.97,0.76,0.88,0.49,630,3.13,40.4,7.1,52.5,5.56,,,,
O=C1c2ccccc2/C(=N/OCCN2CCCCC2)c2ccoc21,87,79,64,,,,,,,,,,,,,,,,,
CN(C)CCO/N=C1/c2ccccc2C(=O)c2occc21,78,51,53,,,,,,,,,,,,,,,,,
c1ccc(/N=C2/c3ccccc3/C(=N/c3ccccc3)c3occc32)cc1,111,111,102,,,,,,,,,,,,,,,,,
Cc1ccc(/N=C2/c3ccccc3/C(=N/c3ccc(C)cc3)c3occc32)cc1,104,104,118,,,,,,,,,,,,,,,,,
Clc1ccc(/N=C2/c3ccccc3/C(=N/c3ccc(Cl)cc3)c3occc32)cc1,109,112,116,,,,,,,,,,,,,,,,,
Br.NCCCO/N=C1/c2ccccc2C(=O)c2occc21,10,44,15,12.6,7.19,9.02,40.9,3.24,5.69,4.53,6620,6.18,33.5,3.2,63.3,4.19,,,,
Fc1ccc(/N=C2/c3ccccc3/C(=N/c3ccc(F)cc3)c3occc32)cc1,102,103,118,,,,,,,,,,,,,,,,,
COc1ccc(/N=C2/c3ccccc3/C(=N/c3ccc(OC)cc3)c3occc32)cc1,86,90,85,,,,,,,,,,,,,,,,,
O=[N+]([O-])c1ccc(/N=C2/c3ccccc3/C(=N/c3ccc([N+](=O)[O-])cc3)c3occc32)cc1,111,117,118,,,,,,,,,,,,,,,,,
CC[C@@]1(O)C(=O)OCc2c1cc1n(c2=O)Cc2cc3ccccc3nc2-1 [CAMPTOTHECIN],33,1,25,0.57,0.03,0.19,0.99,1.74,33,5.21,60,16.5,,,,,,,,
FC(F)(F)c1ccc(/N=C2/c3ccccc3/C(=N/c3ccc(C(F)(F)F)cc3)c3occc32)cc1,111,115,105,,,,,,,,,,,,,,,,,
O=C1c2ccccc2/C(=N/OCCN2CCCC2)c2ccoc21,72,51,58,,,,,,,,,,,,,,,,,
COc1cccc2c1C(=O)c1c(O)c3c(c(O)c1C2=O)C[C@@](O)(C(C)=O)C[C@@H]3O[C@H]1C[C@H](N)[C@H](O)[C@H](C)O1 [DAUNORUBICIN],30,15,16,0.86,0.38,0.6,1.77,2.06,4.66,2.95,7.4,239,,,,,,,,
O=C1c2ccccc2/C(=N/O)c2ccoc21,10,5,16,12.3,7.71,8.85,> 100,>8.13,>12.97,>11.3,820,>121.95,37.7,4.4,58,4.41,,,,
O=C1c2ccccc2C(=O)c2occc21,1,2,16,5.92,5.07,5.65,14.8,2.5,2.92,2.62,650,22.82,27.4,29.4,43.2,8.24,,,,
O=C1c2ccccc2/C(=N/c2ccccc2)c2ccoc21,74,65,74,,,,,,,,,,,,,,,,,
O=C1c2ccccc2/C(=N/OCCN2CCOCC2)c2ccoc21,97,68,90,,,,,,,,,,,,,,,,,
O=C1C(=O)c2ccoc2-c2ccccc21,0,-1,0,6.42,6.38,6.38,5.77,0.9,0.9,0.9,640,9.02,36.1,51.2,12.7,3.75,,,,
CN(C)CCCO/N=C1/c2ccccc2C(=O)c2occc21,74,51,54,,,,,,,,,,,,,,,,,
CO/N=C1/c2ccccc2C(=O)c2occc21,36,4,22,10.2,6.76,16.5,> 100,>9.85,>14.79,>6.05,600,>166.67,26.1,35.7,38.2,4.8,Active,Active,Dose-dependent effect,Dose-dependent effect
CC(=O)O/N=C1/c2ccccc2C(=O)c2occc21,10,5,18,13.3,7.46,7.9,> 100,>7.51,>13.4,>12.66,8590,>11.64,29,30.2,41.9,5.82,,,,
O=C1c2ccccc2/C(=N/c2ccc(F)cc2)c2ccoc21,75,67,77,,,,,,,,,,,,,,,,,
